Data on eight compounds can be found in US20090304663A1, “USE OF GSK-3 INHIBITORS FOR THE TREATMENT OF PROSTATE CANCER” (IMPERIAL INNOVATIONS LIMITED, priority 2004, published 2009).

Entries after “also recorded” stand apart in the source; their conditions may differ. Where two headings read alike, the source gives them in different places.

Assay [1] deals with panel of 79 commonly studied protein kinases, including several PKC isozymes. The settings on record: in words; cited from earlier work.
A further assay has as its target GSK-3. The settings on record: cited from earlier work.
Another assay deals with human GSK-3. The conditions noted are these: cited from earlier work.
The test system of assay [2] is inositol monophosphatases. The conditions noted are these: in words; cited from earlier work.
Assay [3] concerns AR transcriptional activity. Put plainly: AR transcriptional activity, MMTV-Luciferase reporter in CWR-R1 cells. The format is cell-based.
A further assay has as its system 22Rv1 cells. Put plainly: cell growth assay, 22Rv1 cells. In kind it is cell-based.
The next assay deals with PC3 cells. Put plainly: cell growth assay, PC3 cells. The conditions noted are these: 5 μM SB216763, normal growth medium, 72 h. The format is cell-based. As to the method: (§1) The number of cells was counted after 72 h (or after 5 days for LNCaP cells). Experiments were done in triplicate and the error bars indicate standard deviation. […] Cell growth assays were conducted according to Gregory et al, (2001). Briefly, cells (1.5×10^5/well) were plated in 12-well plates (three wells were used for each condition) and allowed to attach overnight. […] Cells were collected by trypsinisation at the indicated times and were counted using a Coulter Counter or using a haemocytometer.

For the next assay, the system named is LNCaP cells. Put plainly: cell growth assay, LNCaP cells. In kind it is cell-based. The settings on record: 5 μM SB216763, hormone-depleted medium with 1 nM R1881, 5 days. The method, then: as §1
The next assay relates to CWR-R1 cells. Nature of the assay: cell growth assay, CWR-R1 cells. The settings on record: for CWR-R1 cell growth (number of cells): 5 μM SB216763 or 20 μM SB415286, up to 6 days. In kind it is cell-based. As to the method:
as §1, with “(a) CWR-R1 cells were grown in the presence of carrier (ut). […] The experiment was done twice in triplicate and the error bars indicate standard deviation. […] The experiment was done in triplicate and the error bars indicate standard deviation. […] The” for “The”

The test system of assay [4] is β-catenin/Tcf transcriptional activity. Put plainly: β-catenin/Tcf transcriptional activity, pOT-Luciferase reporter in CWR-R1 cells. In kind it is cell-based. The conditions noted are these: 20 μM SB415286 or 5 μM SB216763, 24 h, normal growth medium.
Another assay deals with DU145 cells. Nature of the assay: cell growth assay, DU145 cells. The settings on record: 5 μM SB216763, normal growth medium, 72 h. The format is cell-based. As to the method:
as §1

The next assay concerns AR protein. Nature of the assay: AR protein level by western blotting in CWR-R1 cells. The format is cell-based. The conditions noted are these: 5 μM SB216763 or 20 μM SB415286, 24 h, western blot. The method, then:
FIG. 6: Inhibition of GSK-3 leads to a reduction in AR protein levels. […] Western blots of whole cell extracts were probed for AR (upper panels) and reprobed for γ-tubulin as an internal loading control (lower panels).
Cells were grown to 50-70% confluence in 100 mm dishes or 6-well plates. Lysates were obtained using the following steps: Cells were rinsed in cold TBS, lysed in modified RIP A buffer (0.5% deoxycholate, 1% Triton X-100, 20 mM Tris pH 8.0, 0.1% SDS, 100 mM NaCl, 50 mM NaF) or Nonidet P-40 buffer (1% NP-40, 20 mM Tris pH 8.0, 150 mM NaCl, 50 mM NaF) for 10 min and centrifuged for 12 min at 15,000×g. Cell extracts were then mixed with an equal volume of SDS sample buffer (Sigma Aldrich) and heated to 95° C. for 3 min. For immunoprecipitation (IP) assays in transfected COS7 cells, cell extracts were prepared using NP-40 lysis buffer, incubated with primary antibody for 1 h on ice. This was followed by 30 min incubation with 20 μl protein A/G-agarose (Cambridge Biosciences) on a rotating wheel in the cold room. After 4 washes in lysis buffer and 1 wash in TBS, the beads were resuspended in 10 μl of SDS sample buffer and heated as above. […]

[5] abbreviates: CWR-R1 cells, 10 nM R1881, 20 μM SB415286 or 5 μM SB216763, 24 h.

For `O=C1NC(=O)C(c2cn(CCCO)c3ncccc23)=C1c1cnccn1` [3-(1-(3-Hydroxypropyl)-1H-pyrrolo[2,3-b]pyridin-3-yl]-4-pyrazin-2-yl-pyrrole-2,5-dione], the “inhibition of the kinase panel” value in assay [1] is recorded as “minimally inhibits”.
For the compound `Cc1cc(Nc2nc(-c3ccccc3)nc3ccccc23)n[nH]1` [5-Methyl-1H-pyrazol-3-yl)-(2-phenylquinazolin-4-yl)amine], the inhibition constant (Ki) at GSK-3 (ATP-binding site inhibitor) was 24 nM.
For `Cc1c[nH]c(-c2cnc(NCCNc3ccc(C#N)cn3)nc2-c2ccc(Cl)cc2Cl)n1` [CHIR 99021], the inhibition constant (Ki) on human GSK-3 was […].
For the compound `[Cl-].[Li+]` [Lithium chloride, lithium chloride], in assay [2], the “inhibition of inositol monophosphatases relative to GSK-3” value is listed as “to a similar extent”. In the assay with GSK-3 (in words), the IC50 value result was “high”.
Consider `C[C@]1(O)CC[C@H]2[C@@H]3CCC4=CC(=O)CCC4=C3C=C[C@@]21C` [R1881, methyltrienolone], for which, in [3], the AR transcriptional activity result was “increase”. Moreover, the “growth of 22Rv1 cells” value in the assay on 22Rv1 cells (hormone-depleted medium, 10^−12 M or 10^−9 M R1881, 72 h) was “stimulated”.
On to `Cn1cc(C2=C(c3ccc(Cl)cc3Cl)C(=O)NC2=O)c2ccccc21` [SB216763], for which, in the assay with PC3 cells, the “PC3 cell growth (number of cells)” value was “did not significantly affect”. In addition, in assay [3] (setting [5]), the AR transcriptional activity entry is “reduced”. In the assay on LNCaP cells, the “growth of LNCaP cells (number of cells)” value is given as “significantly reduced; also recorded: weakly inhibited”. Moreover, the “growth of CWR-R1 cells (number of cells)” value with CWR-R1 cells (5 μM SB216763, normal growth medium, 72 h) was “significantly reduced”. Moreover, the “CWR-R1 cell growth (number of cells)” value with CWR-R1 cells is “repressed”. Besides, the “concentration at which inhibitory effects on cell growth were maximal (optimal dose)” value in the assay with CWR-R1 cells (CWR-R1 cells, 72 h, complete growth medium) was found to be 3 µM. For the same compound, the β-catenin/Tcf-dependent transcriptional activity entry in assay [4] is “increased”. Further, the “DU145 cell growth (number of cells)” value in the assay on DU145 cells was “did not significantly affect”. Further, the “growth of 22Rv1 cells (number of cells)” value with 22Rv1 cells (5 μM SB216763, hormone-depleted medium with 1 nM R1881, 72 h) is “significantly reduced”. Also, the “R1881-stimulated growth of 22Rv1 cells” value in the assay with 22Rv1 cells (5 μM SB216763, hormone-depleted medium with R1881, 72 h) is on record as “blocked”. The “hormone-independent proliferation of 22Rv1 cells” value in the assay with 22Rv1 cells (5 μM SB216763, hormone-depleted medium, absence of hormone, 72 h) is on record as “inhibited”. For the same compound, in the assay on AR protein, the “protein level of AR” value is given as “reduced”.
In the case of `O=C1NC(=O)C(c2ccccc2[N+](=O)[O-])=C1Nc1ccc(O)c(Cl)c1` [SB415286], in [3] (setting [5]), the AR transcriptional activity result was “reduced”. Also, in the assay on CWR-R1 cells, the “CWR-R1 cell growth (number of cells)” value is on record as “repressed”. Also, in the assay on CWR-R1 cells (up to 50 μM, data not shown), the “dose dependence of inhibitory effects on CWR-R1 cell growth” value was “increased with dose up to the maximal dose tested”. Further, the “protein level of AR” value in the assay on AR protein is on record as “reduced”.
Regarding CHIR 98014, at human GSK-3, the Ki is 0.87 nM.
